Results published in patent US20140018347A1, “BENZOXAZEPINES AS INHIBITORS OF mTOR AND METHODS OF THEIR USE AND MANUFACTURE” (Exelixis, Inc., priority 2010, published 2014).

Experiments:
[1] = target: PI3Kalpha (Homo sapiens, UniProt P42336); experiment: PI3K Biochemical Assays (PI3K-alpha assay); conditions: ATP consumption, luciferase-luciferin; 1 μM ATP, 10 μM PIP2
Procedure: PI3Kn activity was measured as the percent of ATP consumed following the kinase reaction using luciferase-luciferin-coupled chemiluminescence. Reactions were conducted in 384-well white, medium binding microtiter plates (Greiner). Kinase reactions were initiated by combining test compounds, ATP, substrate (PIP2), and kinase in a 20 μL volume in a buffer solution. The standard PI3Kalpha assay buffer was composed 50 mM Tris, pH 7.5, 1 mM EGTA, 10 mM MgCl2, 1 mM DTT and 0.03% CHAPS. The standard assay concentrations for enzyme, ATP, and substrate were 3 nM, 1 μM, and 10 μM, respectively. The reaction mixture was incubated at ambient temperature for approximately 2 h. Following the kinase reaction, a 10 μL aliquot of luciferase-luciferin mix (Promega Kinase-Glo) was added and the chemiluminescence signal measured using a Victor2 or EnVision (Perkin Elmer). Total ATP consumption was limited to 40-60% and IC50 values of control compounds correlate well with literature references. Substituting PI3Kα with PI3Krβ, PI3Kγ, or PI3Kδ, the inhibitory activity of the compounds for the other isoforms of PI3K were measured. For the PI3Kβ and PI3Kδ assays, enzyme concentrations were 10 nM and 4 nM, respectively. For the PI3Kγ assay, enzyme concentration was 40 nM, the incubation time was 1 h, and the concentration of MgCl2 in the assay buffer was 5 mM.

[2] = target: mTORC1 (Homo sapiens, UniProt P42345); experiment: mTOR/GbL/Raptor (mTORC1) ELISA Assay; type: biochemical; conditions: phosphorylation of 4E-BP1; 0.2 nM mTORC1, 10 μM ATP
Procedure: The measurement of mTORC1 enzyme activity was performed in an ELISA assay format following the phosphorylation of 4E-BP1 protein. All experiments were performed in the 384-well format. Generally, 0.5 μL DMSO containing varying concentrations of the test compound was mixed with 15 μL enzyme solution. Kinase reactions were initiated with the addition of 15 μL of substrates-containing solution. The assay conditions were as follows; 0.2 nM mTORC1, 10 μM ATP and 50 nM NHis-tagged 4E-BP1 in 20 mM Hepes, pH 7.2, 1 mM DTT, 50 mM NaCl, 10 mM MnCl2, 0.02 mg/mL BSA, 0.01% CHAPS, 50 mM β-glycerophosphate. Following an incubation of 120 minutes at ambient temperature, 20 μL of the reaction volume was transferred to a Ni-Chelate-coated 384-well plate. The binding step of the 4E-BP1 protein proceeded for 60 minutes, followed by washing 4 times each with 50 μL of Tris-buffered saline solution (TBS). Anti-phospho-4E-BP1 rabbit-IgG (20 μL, 1:5000) in 5% BSA-TBST (0.2% Tween-20 in TBS) was added and further incubated for 60 minutes. Incubation with a secondary HRP-tagged anti-IgG was similarly performed after washing off the primary antibody (4 washes of 50 μL). Following the final wash step with TBST, 20 μL of SuperSignal ELISA Femto (Pierce Biotechnology) was added and the luminescence measured using an EnVision plate reader.

Chain of PI3Kalpha (P42336 whole entry): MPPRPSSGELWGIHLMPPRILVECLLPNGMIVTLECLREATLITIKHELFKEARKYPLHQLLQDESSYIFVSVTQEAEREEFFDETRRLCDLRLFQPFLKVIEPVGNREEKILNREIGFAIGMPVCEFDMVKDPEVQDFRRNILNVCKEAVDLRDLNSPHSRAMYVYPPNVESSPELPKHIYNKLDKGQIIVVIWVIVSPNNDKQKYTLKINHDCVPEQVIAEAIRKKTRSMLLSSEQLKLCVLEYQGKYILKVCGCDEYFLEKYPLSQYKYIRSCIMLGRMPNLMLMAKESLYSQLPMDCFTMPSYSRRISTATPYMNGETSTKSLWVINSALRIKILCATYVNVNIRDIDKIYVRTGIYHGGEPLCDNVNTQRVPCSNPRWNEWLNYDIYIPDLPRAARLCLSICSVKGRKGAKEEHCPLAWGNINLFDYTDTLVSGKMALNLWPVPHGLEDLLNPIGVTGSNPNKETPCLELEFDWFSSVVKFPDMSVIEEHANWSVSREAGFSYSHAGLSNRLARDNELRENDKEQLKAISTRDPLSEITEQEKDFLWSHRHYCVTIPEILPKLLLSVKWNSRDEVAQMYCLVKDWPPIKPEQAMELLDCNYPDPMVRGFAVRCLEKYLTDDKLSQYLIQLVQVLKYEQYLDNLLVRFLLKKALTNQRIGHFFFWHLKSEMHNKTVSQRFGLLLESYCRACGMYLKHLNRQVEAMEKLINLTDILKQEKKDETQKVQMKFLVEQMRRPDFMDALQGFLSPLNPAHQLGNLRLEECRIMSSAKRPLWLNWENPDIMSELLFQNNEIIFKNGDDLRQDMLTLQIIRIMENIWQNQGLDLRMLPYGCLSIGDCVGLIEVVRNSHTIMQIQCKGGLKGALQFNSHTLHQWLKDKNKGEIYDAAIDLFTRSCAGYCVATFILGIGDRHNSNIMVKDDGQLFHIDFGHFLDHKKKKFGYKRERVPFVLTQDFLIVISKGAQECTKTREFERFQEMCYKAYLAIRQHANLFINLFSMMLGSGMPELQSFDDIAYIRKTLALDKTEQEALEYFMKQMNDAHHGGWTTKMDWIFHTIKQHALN
Chain of PI3Kalpha (P27986 whole entry partner): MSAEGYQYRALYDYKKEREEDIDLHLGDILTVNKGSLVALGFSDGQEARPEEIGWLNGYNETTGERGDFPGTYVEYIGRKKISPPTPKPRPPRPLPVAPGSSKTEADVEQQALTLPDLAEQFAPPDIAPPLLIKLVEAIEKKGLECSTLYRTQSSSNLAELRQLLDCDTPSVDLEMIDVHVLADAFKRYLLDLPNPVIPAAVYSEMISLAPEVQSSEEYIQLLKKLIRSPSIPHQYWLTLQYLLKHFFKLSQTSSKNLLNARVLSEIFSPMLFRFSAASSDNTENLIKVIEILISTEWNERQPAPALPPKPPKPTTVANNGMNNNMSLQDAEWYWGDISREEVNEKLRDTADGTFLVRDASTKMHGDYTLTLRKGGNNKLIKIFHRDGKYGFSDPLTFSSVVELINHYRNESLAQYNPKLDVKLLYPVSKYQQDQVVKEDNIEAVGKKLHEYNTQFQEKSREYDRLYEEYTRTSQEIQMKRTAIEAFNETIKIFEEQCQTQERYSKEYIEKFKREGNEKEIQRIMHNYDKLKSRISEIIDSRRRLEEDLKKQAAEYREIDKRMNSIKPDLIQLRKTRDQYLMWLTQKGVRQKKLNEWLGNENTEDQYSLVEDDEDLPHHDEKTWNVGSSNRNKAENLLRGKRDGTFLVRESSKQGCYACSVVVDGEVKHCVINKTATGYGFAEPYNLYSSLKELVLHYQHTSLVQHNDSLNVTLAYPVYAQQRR

SMILES	IC50 [1]	IC50 [2]
Cc1nc(N)nc(N2CCOc3c(Cl)cc(-c4cnc5sc(N)nc5c4)cc3C2)c1C(C)C [Compound 102, 6-{4-[2-amino-6-methyl-5-(1-methylethyl)pyrimidin-4-yl]-9-chloro-2,3,4,5-tetrahydro-1,4-benzoxazepin-7-yl}[1,3]thiazolo[5,4-b]pyridin-2-amine]	≤ 100 nM	≤ 100 nM
N#Cc1cnc(N2CCOc3ccc(-c4cnc5sc(N)nc5c4)cc3C2)nc1N [Compound 49, 4-amino-2-[7-(2-amino[1,3]thiazolo[5,4-b]pyridin-6-yl)-2,3-dihydro-1,4-benzoxazepin-4(5H)-yl]pyrimidine-5-carbonitrile]	≤ 100 nM	100 to 500 nM
C=Cc1cnc(N)nc1N1CCOc2ccc(-c3cnc4sc(N)nc4c3)cc2C1 [Compound 34, 6-[4-(2-amino-5-ethenylpyrimidin-4-yl)-2,3,4,5-tetrahydro-1,4-benzoxazepin-7-yl][1,3]thiazolo[5,4-b]pyridin-2-amine]	≤ 100 nM	≤ 100 nM
Cc1nc(N)nc(N2CCOc3ccc(-c4cnc5sc(N)nc5c4)cc3C2)c1C(C)C [Compound 100]	≤ 100 nM	≤ 100 nM
COc1nc(N)nc(N2CCOc3ccc(-c4cnc5sc(N)nc5c4)cc3C2)c1C [Compound 67]	≤ 100 nM	100 to 500 nM
CC1(C)CC(=O)c2sc(N3CCOc4ccc(-c5cnc6sc(N)nc6c5)cc4C3)nc2C1 [Compound 84, 2-[7-(2-amino[1,3]thiazolo[5,4-b]pyridin-6-yl)-2,3-dihydro-1,4-benzoxazepin-4(5H)-yl]-5,5-dimethyl-5,6-dihydro-1,3-benzothiazol-7(4H)-one]	500 to 2500 nM	100 to 500 nM
COCCc1c(C)nc(CN(C)C)nc1N1CCOc2ccc(-c3cnc4sc(N)nc4c3)cc2C1 [Compound 13, 6-(4-{2-[(dimethylamino)methyl]-6-methyl-5-[2-(methyloxy)ethyl]pyrimidin-4-yl}-2,3,4,5-tetrahydro-1,4-benzoxazepin-7-yl)[1,3]thiazolo[5,4-b]pyridin-2-amine]	≤ 100 nM	100 to 500 nM
CC1(C)CCc2nc(N)nc(N3CCOc4ccc(-c5cnc6sc(N)nc6c5)cc4C3)c2C1 [Compound 61, 4-[7-(2-amino[1,3]thiazolo[5,4-b]pyridin-6-yl)-2,3-dihydro-1,4-benzoxazepin-4(5H)-yl]-6,6-dimethyl-5,6,7,8-tetrahydroquinazolin-2-amine]	≤ 100 nM	≤ 100 nM
CC(O)c1c(Cl)nc(N)nc1N1CCOc2ccc(-c3cnc4sc(N)nc4c3)cc2C1 (stereo not drawn) [Compound 53, 1-{2-amino-4-[7-(2-amino[1,3]thiazolo[5,4-b]pyridin-6-yl)-2,3-dihydro-1,4-benzoxazepin-4(5H)-yl]-6-chloropyrimidin-5-yl}ethanol]	≤ 100 nM	≤ 100 nM
CC1(C)CCc2nc(CC#N)nc(N3CCOc4ccc(-c5cnc6sc(N)nc6c5)cc4C3)c2C1 [Compound 60, {4-[7-(2-amino[1,3]thiazolo[5,4-b]pyridin-6-yl)-2,3-dihydro-1,4-benzoxazepin-4(5H)-yl]-6,6-dimethyl-5,6,7,8-tetrahydroquinazolin-2-yl}acetonitrile]	≤ 100 nM	≤ 100 nM
Cc1nc(CN(C)C)nc(N2CCOc3ccc(-c4cnc5sc(N)nc5c4)cc3C2)c1Cl [Compound 65, 6-(4-{5-chloro-2-[(dimethylamino)methyl]-6 methylpyrimidin-4-yl}-2,3,4,5-tetrahydro-1,4-benzoxazepin-7-yl)[1,3]thiazolo[5,4-b]pyridin-2-amine]	≤ 100 nM	100 to 500 nM
Cc1nc(C#N)nc(N2CCOc3ccc(-c4cnc5sc(N)nc5c4)cc3C2)c1C(C)C [Compound 25, 4-[7-(2-amino[1,3]thiazolo[5,4-b]pyridin-6-yl)-2,3-dihydro-1,4-benzoxazepin-4(5H)-yl)-6-methyl-5-(1-methylethyl)pyrimidine-2-carbonitrile]	100 to 500 nM	≤ 100 nM
Cc1nc(N)nc(N2CCOc3c(F)cc(-c4cnc5sc(N)nc5c4)cc3C2)c1C(C)C [Compound 101, 6-{4-[2-amino-6-methyl-5-(1-methylethyl)pyrimidin-4-yl]-9-fluoro-2,3,4,5-tetrahydro-1,4-benzoxazepin-7-yl}[1,3]thiazolo[5,4-b]pyridin-2-amine]	≤ 100 nM	≤ 100 nM
CC(C)c1c(F)nc(N)nc1N1CCOc2ccc(-c3cnc4sc(N)nc4c3)cc2C1 [Compound 10, 6-{4-[2-amino-6-fluoro-5-(1-methylethyl)pyrimidin-4-yl]-2,3,4,5-tetrahydro-1,4-benzoxazepin-7-yl}[1,3]thiazolo[5,4-b]pyridin-2-amine]	≤ 100 nM	≤ 100 nM
Cc1nc(CN(C)C)nc(N2CCOc3ccc(-c4cnc5sc(N)nc5c4)cc3C2)c1C [Compound 2, 6-(4-{2-[(dimethylamino)methyl]-5,6-dimethylpyrimidin-4-yl}-2,3,4,5-tetrahydro-1,4-benzoxazepin-7-yl)[1,3]thiazolo[5,4-b]pyridin-2-amine]	≤ 100 nM	500 to 2500 nM
Cc1nc(CN(C)C)nc(N2CCOc3ccc(-c4cnc5sc(N)nc5c4)cc3C2)c1CCCF [Compound 38, 6-(4-{2-[(dimethylamino)methyl]-5-(3-fluoropropyl)-6-methylpyrimidin-4-yl}-2,3,4,5-telrahydro-1,4-benzoxazepin-7-yl)[1,3]thiazolo[5,4-b]pyridin-2-amine]	≤ 100 nM	≤ 100 nM
Cc1nc(N)nc(N2CCOc3ccc(-c4cnc5sc(N)nc5c4)cc3C2)c1C [Compound 5, 6-[4-(2-amino-5,6-dimethylpyrimidin-4-yl)-2,3,4,5-tetrahydro-1,4-benzoxazepin-7-yl][1,3]thiazolo[5,4-b]pyridin-2-amine]	≤ 100 nM	100 to 500 nM
Cc1nc2c(c(N3CCOc4ccc(-c5cnc6sc(N)nc6c5)cc4C3)n1)CC(C)(C)CC2 [Compound 59, 6-[4-(2,6,6-trimethyl-5,6,7,8-tetrahydroquinazolin-4-yl)-2,3,4,5-tetrahydro-1,4-benzoxazepin-7-yl][1,3]thiazolo[5,4-b]pyridin-2-amine]	≤ 100 nM	≤ 100 nM
CCN(CC)Cc1nc(C)c(C(C)C)c(N2CCOc3ccc(-c4cnc5sc(N)nc5c4)cc3C2)n1 [Compound 4, 6-(4-{2-[(diethylamino)methyl]-6-methyl-5-(1-methylethyl)pyrimidin-4-yl}-2,3,4,5-tetrahydro-1,4-benzoxazepin-7-yl)[1,3]thiazolo[5,4-b]pyridin-2-amine]	≤ 100 nM	≤ 100 nM
C=CCc1c(Cl)nc(N)nc1N1CCOc2ccc(-c3cnc4sc(N)nc4c3)cc2C1 [Compound 76, 6-[4-(2-amino-6-chloro-5-prop-2-en-1-ylpyrimidin-4-yl)-2,3,4,5-tetrahydro-1,4-benzoxazepin-7-yl][1,3]thiazolo[5,4-b]pyridin-2-amine]	≤ 100 nM	≤ 100 nM
CNc1nc(N)nc(N2CCOc3ccc(-c4cnc5sc(N)nc5c4)cc3C2)c1C [Compound 63, 6-[7-(2-amino[1,3]thiazolo[5,4-b]pyridin-6-yl)-2,3-dihydro-1,4-benzoxazepin-4(5H)-yl]-N~4~,5-dimethylpyrimidine-2,4-diamine]	≤ 100 nM	100 to 500 nM
Cc1nc(CN(C)C)nc(N2CCOc3ccc(-c4cnc5sc(N)nc5c4)cc3C2)c1CC(O)CO (stereo not drawn) [Compound 45, 3-{4-[7-(2-amino[1,3]thiazolo[5,4-b]pyridin-6-yl)-2,3-dihydro-1,4-benzoxazepin-4(5H)-yl]-2-[(dimethylamino)methyl]-6-methylpyrimidin-5-yl}propane-1,2-diol]	500 to 2500 nM	500 to 2500 nM
CNc1nc(C)c(C(C)C)c(N2CCOc3ccc(-c4cnc5sc(N)nc5c4)cc3C2)n1 [Compound 92, 6-{4-[6-methyl-2-(methylamino)-5-(1-methylethyl)pyrimidin-4-yl]-2,3,4,5-tetrahydro-1,4-benzoxazepin-7-yl}[1,3]thiazolo[5,4-b]pyridin-2-amine]	–	≤ 100 nM
